From patent publication US20230111066A1, “PIGMENTED SPOT FORMATION INHIBITOR, INCREASED MELANOSOME PHAGOCYTOSIS INHIBITOR, AND EPIDERMAL DIFFERENTIATION POTENCY IMPROVER” (SSP CO., LTD., priority 2021, published 2023)

Columns and labels:
[1] = tested on: gene expression levels of keratin-10, involucrin, and loricrin; assay: Degradation of epidermal differentiation potency by fluorescent bead phagocytosis, real-time PCR; assay type: cell-based, human
Description: Test Example 3: Effect of Improving Degradation of Epidermal Differentiation Potency by Fluorescent Bead Phagocytosis A culture medium (HuMedia-KG2) was added to a 96-well plate at 0.1 mL/well, and normal human epidermal keratinocytes (NHEKs) were seeded at a density of 2.5×10^4 cells/well, followed by incubation for 24 hours. These cells were divided into first to third groups. In the first group (vitamin B6+bead group), the medium was replaced by a pyridoxine-containing culture medium (pyridoxine: 1 mM), followed by culturing for 24 hours. The NHEKs were allowed to incorporate fluorescent beads (manufactured by Thermo Fisher Scientific Inc.) as pseudo-melanosomes for 4 hours, followed by further culturing in a fresh culture medium (HuMedia-KG2) for 20 hours. In the second group (bead group), after culturing for 24 hours, the NHEKs were allowed to incorporate fluorescent beads (manufactured by Thermo Fisher Scientific Inc.) as pseudo-melanosomes for 4 hours, followed by further culturing in a fresh culture medium (HuMedia-KG2) for 20 hours. In the third group (control group), the NHEKs were directly cultured for 48 hours. Subsequently, total RNA was extracted from the NHEKs of each group, and cDNA was produced by reverse transcription. Real-time PCR was performed using this cDNA as a template to detect gene expression levels of keratin-10, involucrin, and loricrin.

[2] = tested on: normal human epidermal keratinocytes (NHEKs); assay: Fluorescent bead (pseudo-melanosome) phagocytosis enhanced by UVB irradiation; assay type: cell-based
Description: Test Example 1: Enhancement of Fluorescent Bead Phagocytosis by UVB Irradiation and Enhanced Phagocytosis-Inhibiting Effect by VB6 A culture medium (HuMedia-KG2: manufactured by Kurabo Industries Ltd.) was added to a 96-well plate at 0.1 mL/well, and normal human epidermal keratinocytes (NHEKs) were seeded at a density of 2.5×10^4 cells/well, followed by incubation for 24 hours. These cells were divided into first to fourth groups. In the first group (vitamin B6+UVB group), the medium was replaced by a pyridoxine-containing culture medium (pyridoxine: 1 mM), followed by culturing for 24 hours, and irradiation with 20 mJ/cm^2 of UVB using a UVB broadband lamp manufactured by Koninklijke Philips N.V. was performed, followed by culturing for 24 hours. In the second group (vitamin B6 group), the medium was replaced by a pyridoxine-containing culture medium (pyridoxine: 1 mM), followed by culturing for 24 hours. […] Subsequently, the NHEKs of each group were allowed to incorporate fluorescent beads (manufactured by Thermo Fisher Scientific Inc.) as pseudo-melanosomes for 4 hours, and the uptake amount of the fluorescent beads per unit protein was then measured with a microplate reader (manufactured by Tecan Group Ltd.).

[3] = tested on: normal human epidermal keratinocytes (NHEKs); assay: Fluorescent bead phagocytosis enhanced by BSO treatment; assay type: cell-based; conditions: 50 μM BSO, pyridoxine 0.25 mM, 0.5 mM, or 1 mM, FIG. 2
Description: Test Example 2: Enhancement of Fluorescent Bead Phagocytosis by BSO Treatment and Enhanced Phagocytosis-Inhibiting Effect by VB6 A culture medium (HuMedia-KG2) was added to a 96-well plate at 0.1 mL/well, and normal human epidermal keratinocytes (NHEKs) were seeded at a density of 2.5×10^4 cells/well, followed by incubation for 24 hours. These cells were divided into first to fourth groups. In the first group (vitamin B6+BSO group), treatment with 50 μM of buthionine sulfoximine (BSO: manufactured by Sigma-Aldrich Co. LLC) was performed for 24 hours, and the medium was then replaced by a pyridoxine-containing culture medium (pyridoxine: 0.25 mM, 0.5 mM, or 1 mM), followed by culturing for 24 hours. In the second group (vitamin B6 group), the medium was replaced by a pyridoxine-containing culture medium (pyridoxine: 0.25 mM, 0.5 mM, or 1 mM), followed by culturing for 24 hours. In the third group (BSO group), treatment with 50 μM of buthionine sulfoximine (BSO) was performed for 24 hours, followed by culturing in a KG2 culture medium for 24 hours. […] Subsequently, the NHEKs of each group were allowed to incorporate fluorescent beads (manufactured by Thermo Fisher Scientific Inc.) for 4 hours, and the uptake amount of the fluorescent beads per unit protein was then measured with a microplate reader (manufactured by Tecan Group Ltd.).

Compound	effect on epidermal differentiation potency, summary statement on the Examples ([1]; general statement covering Test Example 3)	effect on increase in melanosome phagocytosis, summary statement on the Examples ([2]; general statement covering Test Examples 1 and 2)	effect on epidermal differentiation potency (gene expression of keratin-10, involucrin, loricrin) ([1]; NHEKs, pyridoxine 1 mM, fluorescent beads 4 hours, FIG. 3)	effect on increase in melanosome phagocytosis (uptake amount of fluorescent beads per unit protein) [3]	effect on increase in melanosome phagocytosis (uptake amount of fluorescent beads per unit protein) ([2]; NHEKs, pyridoxine 1 mM, 20 mJ/cm^2 UVB, FIG. 1)
vitamin B6	improving epidermal differentiation potency	excellent effects of inhibiting an increase in melanosome phagocytosis			
Cc1ncc(CO)c(CO)c1O [pyridoxine]			improving epidermal differentiation potency	inhibiting an increase in melanosome phagocytosis	inhibiting an increase in melanosome phagocytosis
